These results are taken from US7964613B2 (Asahi Kasei Pharma Corporation, priority 2007, dated 2011).

Experiment [1] concerns rat spinal canal stenosis (cauda equina compression-induced walking dysfunction) model. Description: Rat spinal canal stenosis model, walking ability test. In kind it is in vivo. The conditions noted are these: treadmill; for walk distance compared with the solvent repetitive administration group: 14th day of repetitive administration; for Inventive compound repetitive administration group (average distance (m)): 14th day of repetitive administration started 4th day after operation, 7 or 8 animals. An excerpt: A rat spinal canal stenosis (cauda equina compression-induced walking dysfunction) model can be prepared according to the method of Nakai, K et al. (Anesth. Analg., 94, pp. 1537-1541 (2002)) or the like. Namely, a rat is anesthetized with pentobarbital sodium, shaved on the back, and fixed in the abdominal position. After disinfection on the back with Isodine Surgical Scrub (Meiji Seika), a lumbar part is cut open along the median to expose the spine. Then, a silicone rubber of 1×4×1.5 mm (height×length×width) is inserted into the fifth lumbar vertebral canal from a small hole on the vertebral arch. Benzylpenicillin potassium (Crystalline Penicillin G Potassium Meiji, Meiji Seika) is dropped on the opened lesion and intramuscularly injected in the femoral region for the purpose of evasion of infectious diseases. The muscles and skin of the opened lesion are sutured with a ligature, and Isodine Surgical Scrub is applied to the sutured portion. Animals of sham group are also prepared according to the aforementioned method, provided that silicone rubber is not inserted.
In walking ability test, evaluation is performed by using a treadmill (Muromachi Kikai). A rat is placed on a traveling belt, adapted to the environment more than 3 minutes under a grid-electrified condition (0.04 to 4 mA), and then made to start walking from a velocity of 10 m/min, and then the velocity is increased by 5 m/min every 3 minutes. The walk is stopped, and electrical stimulation (0.04 to 4 mA) is applied to the rat which has moved to the grid for electrical stimulation provided before the traveling belt. Distance which the animal walked after the animal started the walk until the animal became unable to walk, i.e., the animal came not to walk even if a stimulation (sound, contact, electricity) was added to the animal to urge it to walk, was calculated from the walking time. Before the operation, the walking function test is carried out 3 times to perform training of walk. From the 4th day after the operation, repetitive administration of each compound of the present invention as a test compound was started, and the walking ability test was performed on the 14th day of the administration for the measurement.
Each group consisted of 7 or 8 animals, and the average distance before the administration was the average for the animals of both groups. […] It was confirmed that the compounds of the present invention were useful as medicaments for therapeutic treatment of a disease accompanied by walking dysfunction such as spinal canal stenosis.

Experiment [2] concerns rabbit normal intraocular pressure. Description: Intraocular pressure reducing action. It counts as in vivo, Japanese white rabbit. The settings on record: Oryctolagus cuniculus, topical, read-out: intraocular pressure reducing degree; for inhibition in vivo at 3000 µM: 3 mM aqueous solution, 50 μl to the left eye, max IOP reduction (2, 4, 6 hours) / value immediately before administration; for inhibition in vivo at 1000 µM: test compound of 1 mM, same test as Test Example 3. The gist of the method: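 Japanese white rabbits (~2 kg) under topical anaesthesia received 50 μl of a 3 mM aqueous test solution in the left eye, right eye untreated. IOP read by tonometer before and at 2, 4, 6 h; maximal left–right difference divided by pre-dose IOP ×100 gives % reduction.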

SMILES strings stand for the structures.

Turning to `CN[C@H]1CCN(S(=O)(=O)c2cccc3cncc(C)c23)C1` [Example 8-3], in experiment [1], the “walk distance compared with the solvent repetitive administration group” value is on record as “extended the walk distance” and the “Inventive compound repetitive administration group (average distance (m))” value is on record as 224 m. In experiment [2], the inhibition in vivo at 3000 µM is no less than 20% and the inhibition in vivo at 1000 µM is no less than 20%.
Take `N[C@H]1CCN(S(=O)(=O)c2cccc3cncc(Cl)c23)C1` [Example 19-1, (S)-3-Amino-1-(4-chloro-5-isoquinolinesulfonyl)pyrrolidine]: the inhibition in vivo at 3000 µM in experiment [2] is no less than 20%.
Regarding `CN[C@H]1CCN(S(=O)(=O)c2cccc3cncc(Cl)c23)C1` [Example 19-3, (S)-1-(4-Chloro-5-isoquinolinesulfonyl)-3-(methylamino)pyrrolidine], in experiment [1], the “walk distance compared with the solvent repetitive administration group” value was “extended the walk distance” and the “Inventive compound repetitive administration group (average distance (m))” value is reported as 285 m. Moreover, in experiment [2], the inhibition in vivo at 3000 µM is no less than 20% and the inhibition in vivo at 1000 µM was no less than 20%.
`CN[C@H]1CCN(S(=O)(=O)c2cccc3c(O)ncc(Cl)c23)C1` [Example 36-1, (S)-1-(1-Hydroxy-4-chloro-5-isoquinolinesulfonyl)-3-(methylamino)pyrrolidine]: in experiment [1], the “walk distance compared with the solvent repetitive administration group” value is listed as “extended the walk distance” and the “Inventive compound repetitive administration group (average distance (m))” value turned out to be 298 m. Besides, in experiment [2], the inhibition in vivo at 3000 µM fell in the range of 10 to 20%.
